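The compound was tested at five concentrations on cells cultured in 96-well plates, with a 48-hour exposure period. Here, GI50 denotes the concentration required for 50% inhibition of growth. TGI marks complete inhibition of growth.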
How the values were obtained:
Assay in all cases: NCI tumour cell line growth inhibition, 48 h
MCF7 breast = tested on: MCF7 breast
LXFL 529 NSCLC = tested on: LXFL 529 NSCLC
SN12K1 renal = tested on: SN12K1 renal
XF 498 CNS = tested on: XF 498 CNS
DMS 273 small cell lung = tested on: DMS 273 small cell lung
RXF-631 renal = tested on: RXF-631 renal
HS 578T breast = tested on: HS 578T breast
MDA-MB-435 = tested on: MDA-MB-435
MDA-N = tested on: MDA-N
T-47D breast = tested on: T-47D breast
P388/ADR leukemia = tested on: P388/ADR leukemia

Row | Structure (SMILES) | TGI (LXFL 529 NSCLC) [µM] | TGI (XF 498 CNS) [µM] | TGI (DMS 273 small cell lung) [µM] | TGI (RXF-631 renal) [µM] | other results
1 | CN(C)CCNC(=O)c1cc([N+](=O)[O-])cc2ccc(-c3ccccc3)nc12 | 58 | 21.7 | 31.7 | – | TGI (MCF7 breast): > 100 µM; TGI (SN12K1 renal): 15.2 µM
2 | Cn1cc(NC(=O)c2cc(NC(=O)CCCCCC(=O)Nc3cc(C(=O)Nc4cc(C(=O)NCCC(=N)N)n(C)c4)n(C)c3)cn2C)cc1C(=O)NCCC(=N)N | > 100 | > 100 | > 100 | > 100 | –
3 | CCOC(=O)C(=O)Nc1c(C)cccc1CC | > 100 | > 100 | – | > 100 | –
4 | Nc1ccc2c(c1)[O][Sn]([c]1ccccc1)([c]1ccccc1)[O]C2=O | 3.12 | – | 31.1 | 29.9 | GI50 (HS 578T breast): 4.06 µM; TGI (HS 578T breast): 22.2 µM; GI50 (MDA-MB-435): 6.78 µM; TGI (MDA-MB-435): 17.3 µM; GI50 (RXF-631 renal): 15.9 µM; GI50 (MCF7 breast): 3.95 µM; TGI (MCF7 breast): 8.52 µM; GI50 (LXFL 529 NSCLC): 1.51 µM; GI50 (DMS 273 small cell lung): 16.6 µM; GI50 (MDA-N): 2.95 µM; TGI (MDA-N): 9.26 µM
5 | CC(=O)O/C(C)=C\C(=O)O/N=C(\N)c1ccc(C)cc1 | 59.9 | > 100 | > 100 | 61.1 | –
6 | O=C1c2cccc3cc([N+](=O)[O-])cc(c23)C(=O)N1CCCN1CCN(CCCN2C(=O)c3cccc4cc([N+](=O)[O-])cc(c34)C2=O)CC1 | > 100 | 4.06 | – | 3.21 | –
7 | COc1ccc(/C=[N+](\[O-])[C@H](COCc2ccccc2)c2ccccc2)cc1 | > 100 | > 100 | > 100 | > 100 | –
8 | CC(SC1=CC(=O)c2c(O)ccc(O)c2C1=O)C(=O)O (stereo unspecified) | > 51.6 | > 82.2 | > 100 | > 100 | –
9 | c1cncc(C2c3[nH]c4ccccc4c3CCN2CCN2CCCCC2)c1 (stereo unspecified) | > 100 | > 100 | > 100 | > 100 | –
10 | CCCN(CCCCC(NC(C)=O)C(=O)NCc1ccccc1)C(=O)NC (stereo unspecified) | > 100 | > 100 | > 100 | > 100 | –
11 | CCCN(CCC)c1c([N+](=O)[O-])cc(S(N)(=O)=O)cc1[N+](=O)[O-] | 30 | 30.2 | 33.8 | 35.5 | –
12 | C=CCN(N=O)C(=O)N(CCC)CCCC(NC(C)=O)C(=O)NCc1ccccc1 (stereo unspecified) | > 100 | > 100 | > 100 | > 100 | –
13 | O=C(O)c1[nH]c(C(=O)O)c(CC(F)(F)C(F)(F)C(F)(F)F)c1CC(F)(F)C(F)(F)C(F)(F)F | > 100 | > 100 | > 100 | > 100 | –
14 | [Cl][Sn]([c]1ccccc1)[c]1ccccc1 | 3.13 | 5.22 | 34 | 27 | GI50 (RXF-631 renal): 3.86 µM; GI50 (LXFL 529 NSCLC): 1.4 µM; GI50 (XF 498 CNS): 2.68 µM; GI50 (DMS 273 small cell lung): 10 µM
15 | CCCCS(=N)(=O)CC[C@H](N)C(=O)O (stereo partly specified) | – | 604 | > 5000 | – | GI50 (HS 578T breast): > 8500 µM; TGI (HS 578T breast): > 10000 µM; GI50 (MDA-MB-435): > 10000 µM; TGI (MDA-MB-435): > 10000 µM; GI50 (MCF7 breast): > 10000 µM; TGI (MCF7 breast): > 10000 µM; GI50 (T-47D breast): > 10000 µM; TGI (T-47D breast): > 10000 µM; TGI (P388/ADR leukemia): > 5000 µM; TGI (SN12K1 renal): 3750 µM; GI50 (MDA-N): > 5000 µM; TGI (MDA-N): > 10000 µM
16 | Cc1c(C(=O)CC(=O)C(=O)NC2C3CC4CC(C3)CC2C4)[n+](=O)c2ccccc2n1[O-] (stereo unspecified) | > 100 | > 100 | > 100 | > 100 | –
17 | CCc1cccc(C)c1NC(=O)CC1Sc2ccccc2NC1=O (stereo unspecified) | > 100 | > 100 | > 100 | > 100 | –

— PubChem BioAssay (NCI)
